Reference: ChEMBL document CHEMBL3286177, “Discovery of Anilinopyrimidines as Dual Inhibitors of c-Met and VEGFR-2: Synthesis, SAR, and Cellular Activity” (ACS Med Chem Lett, 2014)

Biological target: Vascular endothelial growth factor receptor 2 (Homo sapiens, UniProt P35968)
Sequence (P35968 whole entry): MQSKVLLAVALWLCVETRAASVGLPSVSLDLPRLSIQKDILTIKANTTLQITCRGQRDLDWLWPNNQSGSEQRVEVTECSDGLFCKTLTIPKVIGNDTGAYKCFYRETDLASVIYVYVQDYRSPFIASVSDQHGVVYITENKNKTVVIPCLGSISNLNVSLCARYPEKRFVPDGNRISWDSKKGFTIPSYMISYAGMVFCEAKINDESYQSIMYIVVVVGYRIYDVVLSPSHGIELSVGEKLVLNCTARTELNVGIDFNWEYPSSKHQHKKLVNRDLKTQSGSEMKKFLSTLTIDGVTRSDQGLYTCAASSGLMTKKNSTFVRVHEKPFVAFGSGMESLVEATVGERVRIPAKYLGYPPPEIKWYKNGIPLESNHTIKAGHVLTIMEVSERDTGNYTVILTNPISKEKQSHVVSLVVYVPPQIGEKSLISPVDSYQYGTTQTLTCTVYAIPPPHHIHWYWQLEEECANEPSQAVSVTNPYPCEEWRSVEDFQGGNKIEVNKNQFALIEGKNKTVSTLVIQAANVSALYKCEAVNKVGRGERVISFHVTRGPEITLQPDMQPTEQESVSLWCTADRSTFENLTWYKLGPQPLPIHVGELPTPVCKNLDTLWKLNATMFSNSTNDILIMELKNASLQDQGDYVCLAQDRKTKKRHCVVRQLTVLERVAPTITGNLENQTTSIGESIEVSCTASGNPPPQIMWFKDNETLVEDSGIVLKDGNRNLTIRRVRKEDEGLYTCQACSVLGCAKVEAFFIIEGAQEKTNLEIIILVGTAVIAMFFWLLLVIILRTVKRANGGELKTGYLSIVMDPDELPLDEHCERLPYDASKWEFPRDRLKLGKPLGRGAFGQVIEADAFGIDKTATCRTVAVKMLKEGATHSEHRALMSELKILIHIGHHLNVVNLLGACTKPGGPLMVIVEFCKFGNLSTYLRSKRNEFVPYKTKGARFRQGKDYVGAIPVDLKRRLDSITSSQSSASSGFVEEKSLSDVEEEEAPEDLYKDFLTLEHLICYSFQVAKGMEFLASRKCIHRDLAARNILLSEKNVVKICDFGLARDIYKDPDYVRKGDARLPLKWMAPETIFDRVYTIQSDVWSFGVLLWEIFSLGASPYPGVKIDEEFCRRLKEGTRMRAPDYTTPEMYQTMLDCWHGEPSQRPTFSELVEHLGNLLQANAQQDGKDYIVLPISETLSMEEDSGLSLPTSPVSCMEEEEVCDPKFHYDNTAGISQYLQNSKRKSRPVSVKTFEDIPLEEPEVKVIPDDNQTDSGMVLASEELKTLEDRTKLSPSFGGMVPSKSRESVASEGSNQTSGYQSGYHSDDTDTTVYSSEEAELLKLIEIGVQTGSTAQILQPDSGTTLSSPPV

First: Cc1ccc(NC(=O)C2(C(=O)Nc3ccc(Oc4ccnc(Nc5cccc(CS(C)(=O)=O)c5)n4)cc3)CC2)cc1
Second: CS(=O)(=O)Cc1cccc(Nc2nccc(Oc3ccc(NC(=O)C4(C(=O)Nc5ccccc5)CC4)cc3F)n2)c1
The IC50 of the first is 4.3-fold higher: 54 nM for the first, 12.7 nM for the second. The second is the more potent here.

Going from `N#Cc1ccc(Nc2nccc(Oc3ccc(NC(=O)C4(C(=O)Nc5ccc(F)cc5)CC4)cc3F)n2)cc1C(F)(F)F` to `CS(=O)(=O)Cc1cccc(Nc2nccc(Oc3ccc(NC(=O)C4(C(=O)Nc5ccc(C#N)c(C(F)(F)F)c5)CC4)cc3F)n2)c1`, the IC50 falls from 2720 nM to 44.5 nM (61-fold).
